# “And” between values parts separate entries of the source, which are not always exact repeats. Equal values may be shown once. Read-outs that look alike come from different tables or passages of the source.
# What was measured:
# [1] = target: T1, human serum albumin (HSA) (Homo sapiens, UniProt P02768); assay: Fluorescence quenching of human serum albumin by mycotoxins; format: binding; settings: mycotoxin 0–5 μM, albumin 2 μM, PBS pH 7.4
# T1 construct: purchased Merck (Darmstadt, Germany)
# Method: (§1) Fluorescence emission spectra were collected at 25 °C using a Hitachi F-4500 fluorescence spectrophotometer (Tokyo, Japan). The quenching effects of AG, AMG, and Z14Glr (each 0–5 μM) on the emission signals of albumins (2 μM each) were examined at 340 nm in phosphate-buffered saline (PBS, pH 7.4). UV–vis measurements were performed at 25 °C in PBS, employing a Jasco V730 UV–vis spectrophotometer (Tokyo, Japan). Thereafter, we corrected the inner-filter effects of the mycotoxins, as previously reported. Stern–Volmer quenching constants (KSV; L/mol) were calculated with the graphical application of the Stern–Volmer equation [11, 29]:(1) I0/I=1+KSV×Q where I0 and I are the emission intensities of the protein without and with the quencher, respectively, while [Q] is the concentration (mol/L) of the quencher (mycotoxin). The binding constants (K; L/mol) of mycotoxin–albumin complexes were determined with nonlinear fitting, using the HyperQuad2006 software (version 3.1; Protonic Software GmbH, Hanau, Germany), as described previously.
# (§2) The interaction of a ligand molecule with albumin usually induces a decrease in the emission signal of the protein [33]; therefore, fluorescence quenching studies were performed. In PBS (pH 7.4), increasing amounts of AG, AMG, and Z14Glr were added to standard concentrations of human (HSA), bovine (BSA), porcine (PSA), or rat (RSA) serum albumins, after which the emission spectra were recorded.
# (§3) The KSV and K values of mycotoxin–albumin complexes were determined using the Stern–Volmer equation (Equation (1)) and the HyperQuad2006 software (see data in Table 1 and Table 2, respectively). […] The logKSV and logK values of the mycotoxin–albumin complexes were in good agreement (Table 1 and Table 2).
# [2] = target: T2, bovine serum albumin (BSA) (Bos taurus, UniProt P02769); assay: Fluorescence quenching of bovine serum albumin by mycotoxins; format: binding; settings: mycotoxin 0–5 μM, albumin 2 μM, PBS pH 7.4
# T2 construct: purchased Merck (Darmstadt, Germany)
# T2 sequence (P02769 25-607): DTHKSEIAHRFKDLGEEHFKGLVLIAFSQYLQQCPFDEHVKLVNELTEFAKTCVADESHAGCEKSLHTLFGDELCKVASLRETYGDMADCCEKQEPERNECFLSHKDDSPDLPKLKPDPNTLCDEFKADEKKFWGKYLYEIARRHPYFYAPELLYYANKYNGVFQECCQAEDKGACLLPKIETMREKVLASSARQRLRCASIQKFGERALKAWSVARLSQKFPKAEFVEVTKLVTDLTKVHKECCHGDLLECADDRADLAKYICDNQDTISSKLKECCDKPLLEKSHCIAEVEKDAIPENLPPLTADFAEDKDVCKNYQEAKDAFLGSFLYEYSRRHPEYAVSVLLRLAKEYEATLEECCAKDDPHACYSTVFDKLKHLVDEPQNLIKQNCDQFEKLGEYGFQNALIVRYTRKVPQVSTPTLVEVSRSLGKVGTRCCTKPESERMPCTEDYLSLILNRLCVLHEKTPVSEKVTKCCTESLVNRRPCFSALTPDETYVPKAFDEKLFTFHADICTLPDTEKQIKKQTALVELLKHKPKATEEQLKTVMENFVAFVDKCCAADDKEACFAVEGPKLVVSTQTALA
# Method: as §1, §2, §3
# [3] = target: T3, porcine serum albumin (PSA) (Sus scrofa, UniProt P08835); assay: Fluorescence quenching of porcine serum albumin by mycotoxins; format: binding; settings: mycotoxin 0–5 μM, albumin 2 μM, PBS pH 7.4
# T3 construct: purchased Merck (Darmstadt, Germany)
# T3 sequence (P08835 25-607): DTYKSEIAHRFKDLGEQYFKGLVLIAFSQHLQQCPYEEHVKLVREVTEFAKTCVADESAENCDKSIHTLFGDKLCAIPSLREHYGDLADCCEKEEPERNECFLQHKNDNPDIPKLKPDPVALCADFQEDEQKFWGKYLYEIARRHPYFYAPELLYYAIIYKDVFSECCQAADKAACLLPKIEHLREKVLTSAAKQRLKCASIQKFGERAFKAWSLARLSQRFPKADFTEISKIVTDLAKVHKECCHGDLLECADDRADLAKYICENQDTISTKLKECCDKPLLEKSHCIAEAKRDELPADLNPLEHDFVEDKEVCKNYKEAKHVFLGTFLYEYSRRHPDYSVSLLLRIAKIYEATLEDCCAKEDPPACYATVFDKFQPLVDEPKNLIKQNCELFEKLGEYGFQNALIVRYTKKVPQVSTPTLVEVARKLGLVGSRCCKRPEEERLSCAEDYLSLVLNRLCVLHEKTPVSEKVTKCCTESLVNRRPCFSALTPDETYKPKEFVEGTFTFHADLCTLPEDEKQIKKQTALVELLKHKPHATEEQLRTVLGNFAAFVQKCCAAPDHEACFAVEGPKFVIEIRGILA
# Method: as §1, §2, §3
# rat serum albumin (RSA) [4] = target: T4, rat serum albumin (RSA) (Rattus norvegicus, UniProt P02770); assay: Fluorescence quenching of rat serum albumin by mycotoxins; format: binding
# T4 construct: purchased Merck (Darmstadt, Germany)
# T4 sequence (P02770 25-608): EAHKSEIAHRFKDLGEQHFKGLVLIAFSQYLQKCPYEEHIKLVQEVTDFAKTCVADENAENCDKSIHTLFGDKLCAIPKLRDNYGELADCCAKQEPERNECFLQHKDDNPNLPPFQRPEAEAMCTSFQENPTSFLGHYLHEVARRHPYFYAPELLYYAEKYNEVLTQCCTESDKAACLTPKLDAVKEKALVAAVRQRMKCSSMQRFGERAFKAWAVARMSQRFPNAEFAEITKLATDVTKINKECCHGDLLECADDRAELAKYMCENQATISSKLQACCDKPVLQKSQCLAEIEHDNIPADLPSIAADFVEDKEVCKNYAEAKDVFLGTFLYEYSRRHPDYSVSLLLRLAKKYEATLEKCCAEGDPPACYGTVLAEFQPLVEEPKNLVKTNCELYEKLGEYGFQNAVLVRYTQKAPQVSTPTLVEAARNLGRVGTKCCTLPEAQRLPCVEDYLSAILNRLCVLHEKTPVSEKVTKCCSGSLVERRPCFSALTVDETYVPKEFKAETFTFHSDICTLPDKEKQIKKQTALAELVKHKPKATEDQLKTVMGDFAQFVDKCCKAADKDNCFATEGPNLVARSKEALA
# Method: as §1, §2, §3
# [5] = target: T1, human serum albumin (HSA); assay: Ultracentrifugation study of mycotoxin-HSA binding
# Method: To confirm the data calculated based on fluorescence quenching studies, ultracentrifugation experiments were also performed. With the proper conditions of ultracentrifugation, albumin (with the bound ligands) can be sedimented. The samples (final volume: 500 μL) contained AG, AMG, or Z14Glr (5 μM each) with HSA (60 or 180 μM) dissolved in PBS. Centrifugation (16 h, 170,000× g, 20 °C) was performed using 11 × 34 mm PC tubes (Beckman Coulter, Brea, CA, US) and a Beckman Coulter Optima MAX-XP tabletop ultracentrifuge (fixed-angle rotor). The unbound fractions of mycotoxins were determined in the protein-free supernatant by HPLC-FLD (see details in Section 2.5), as previously reported. (3) K=[LA]/L×[A] where [L], [A], and [LA] are the concentrations (mol/L) of the ligand (unbound), albumin (unbound), and the ligand–albumin complex, respectively.
# Furthermore, to test the impact of environmental pH on the stability of mycotoxin–albumin complexes, the abovementioned experiments were also performed in 0.05 M sodium acetate (pH 5.0) and 0.05 M sodium borate (pH 8.5) buffers.
# To confirm the binding constants determined in the quenching experiments, and to get insight into the interaction of Z14Glr with HSA, ultracentrifugation studies were also performed. In these investigations, albumins (with the ligands bound) were sedimented, and then the concentrations of the unbound mycotoxins were quantified from the supernatants.
# rat serum albumin (RSA) [6] = target: T4, rat serum albumin (RSA); assay: Ultracentrifugation study of Z14Glr-RSA binding; settings: PBS pH 7.4, read-out: logK of the Z14Glr–RSA complex (converted)
# [7] = Fluorescence spectroscopic study of mycotoxin-SBECD complex formation; format: binding
# Method: (§4) The impacts of SBECD (0–10 mM) and SGD (0–5 mM) on the emission signals of mycotoxins (1 μM each) were tested in sodium acetate buffer (0.05 M, pH 5.0). Mycotoxin–CD interactions were evaluated using the Benesi–Hildebrand equation [11, 31], assuming 1:1 stoichiometry of complex formation:(2) F0/F−F0=1/A+1/A×K×[CD] where K (L/mol) is the binding constant, F0 is the emission signal of the mycotoxin without the host molecules, F is the emission signal of the mycotoxin with CDs, A is a constant, and [CD] is the molar concentration (mol/L) of the host molecules.
# (§5) Therefore, CD-induced elevation in the fluorescence emission intensities of mycotoxins was examined.
# (§6) Based on the emission signals at 455 nm, the binding constants of ligand–CD complexes were calculated using the Benesi–Hildebrand equation (Equation (2)). Background corrections were performed in each experiment. […] Glucose and glucuronic acid are bulky, hydrophilic molecules; therefore, it is reasonable to hypothesize that these substituents make the inclusion of AG, AMG, and Z14Glr by the apolar CD cavity difficult.
# [8] = Fluorescence spectroscopic study of mycotoxin-SGD complex formation; format: binding; settings: SGD 0–5 mM, mycotoxin 1 μM, sodium acetate pH 5.0
# Method: as §4, §5, §6
# [9] = Extraction of mycotoxins from aqueous solutions with β-cyclodextrin bead polymer; settings: for decrease in mycotoxin concentration (extraction) by BBP: BBP 10 mg/mL, mycotoxin 5 μM, sodium acetate buffer pH 5.0, 40 min, 25 °C
# Method: (§7) The extraction of mycotoxins by insoluble (but water-swellable) CD bead polymers was tested in 0.05 M sodium acetate (pH 5.0) and 0.05 M sodium borate (pH 10.0) buffers. AG, AMG, alternariol, Z14Glr, and zearalenone solutions (5 μM each) were incubated with increasing amounts (0–10 mg/mL) of BBP or GBP in a thermomixer for 40 min at 1000 rpm and 25 °C. After pulse centrifugation (5000× g, 3 s), the mycotoxin contents of the supernatants were analyzed by HPLC-FLD (see Section 2.5).
# (§8) The quantitative analyses of the examined mycotoxins were performed with a Jasco HPLC system (Tokyo, Japan) equipped with a binary pump (PU-4180), an autosampler (AS 4050), and a fluorescence detector (FP-920). Chromatograms were evaluated using the ChromNAV2 software (Jasco). Alternariol and zearalenone were analyzed as described previously. During the validation of our new HPLC-FLD methods, the linearity (LIN), limit of detection (LOD), limit of quantification (LOQ), and intraday repeatability (IDR) were determined as described previously.
# (§9) AG and AMG were quantified using the following method: Isocratic elution of the samples (20 μL) was performed at room temperature with a 1 mL/min flow rate, employing phosphoric acid (1 mM) and acetonitrile (65:35 v/v%) as the mobile phase, where a Security Guard (C18, 4.0 × 3.0 mm; Phenomenex, Torrance, CA, US) precolumn was linked to a Kinetex EVO C18 (250 × 4.6 mm, 5 μm; Phenomenex) analytical column. Chromatograms were recorded, applying 335 nm and 455 nm excitation and emission wavelengths, respectively. The method validation parameters were as follows: AG (LIN: 0.2–5.0 μM, R^2 = 0.999; LOD = 0.05 μM; LOQ = 0.18 μM; IDR = 1.3%, n = 7); AMG (LIN: 0.2–5.0 μM, R^2 = 0.997; LOD = 0.15 μM; LOQ = 0.50 μM; IDR = 2.3%, n = 7).
# (§10) Z14Glr was quantified using the following method: Isocratic elution of the samples (20 μL) was performed at room temperature with a 1 mL/min flow rate, employing 1% acetic acid solution and acetonitrile (65:35 v/v%) as the mobile phase, where a Security Guard (C8, 4.0 × 3.0 mm; Phenomenex) precolumn was linked to a Mediterranea See8 (C8, 150 × 4.6 mm, 5 μm; Teknokroma, Barcelona, Spain) analytical column. Chromatograms were recorded, applying 315 nm and 465 nm excitation and emission wavelengths, respectively. The method validation parameters for the HPLC analysis of Z14Glr were also determined (LIN: 0.2–5.0 μM, R^2 = 0.999; LOD = 0.15 μM; LOQ = 0.50 μM; IDR = 2.0%, n = 7).
# [10] = Extraction of mycotoxins from aqueous solutions with γ-cyclodextrin bead polymer; settings: GBP 0–10 mg/mL, mycotoxin 5 μM, sodium acetate buffer pH 5.0
# Method: as §7, §8
# as §9, with “The method validation parameters were as follows: AG (LIN: 0.2–5.0 μM, R^2 = 0.999; LOD = 0.05 μM; LOQ = 0.18 μM; IDR = 1.3%, n = 7); AMG (LIN: 0.2–5.0 μM, R^2 = 0.997; LOD = 0.15 μM; LOQ = 0.50 μM; IDR = 2.3%, n = 7).” left out
# as §10, with “The method validation parameters for the HPLC analysis of Z14Glr were also determined (LIN: 0.2–5.0 μM, R^2 = 0.999; LOD = 0.15 μM; LOQ = 0.50 μM; IDR = 2.0%, n = 7).” left out
# albumins = system: albumins; set-up: method as in PMID 31083629; settings: alternariol, RSA vs HSA; cited from earlier work
# T1 sequence (P02768 25-609): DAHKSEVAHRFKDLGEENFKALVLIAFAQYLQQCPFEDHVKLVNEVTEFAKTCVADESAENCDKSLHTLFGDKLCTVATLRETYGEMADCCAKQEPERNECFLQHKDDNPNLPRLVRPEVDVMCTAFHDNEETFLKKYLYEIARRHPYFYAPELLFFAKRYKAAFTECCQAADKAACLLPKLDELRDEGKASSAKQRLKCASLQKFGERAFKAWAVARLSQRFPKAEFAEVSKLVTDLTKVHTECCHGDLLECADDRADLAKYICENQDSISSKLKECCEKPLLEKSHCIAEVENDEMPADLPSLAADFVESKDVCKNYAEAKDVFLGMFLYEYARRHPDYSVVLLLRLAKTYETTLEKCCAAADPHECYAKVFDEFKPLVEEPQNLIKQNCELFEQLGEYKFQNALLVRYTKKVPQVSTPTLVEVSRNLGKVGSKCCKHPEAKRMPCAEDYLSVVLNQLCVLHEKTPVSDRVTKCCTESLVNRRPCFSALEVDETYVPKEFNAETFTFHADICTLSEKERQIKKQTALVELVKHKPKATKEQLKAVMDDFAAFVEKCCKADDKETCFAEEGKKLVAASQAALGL
Structure (SMILES),effect on fluorescence emission spectrum of HSA [1],effect on fluorescence emission spectrum of BSA [2],effect on fluorescence emission spectrum of PSA [3],"RSA logKSV ± SEM (Stern–Volmer quenching constant) (rat serum albumin (RSA) [4]; PBS pH 7.4, 25 °C, albumin 2 μM, mycotoxin 0–5 μM, n = 3) [L/mol]","Kd (rat serum albumin (RSA) [4]; fluorescence quenching, HyperQuad fitting, PBS pH 7.4, n = 3, read-out: RSA logK ± SEM (binding constant) (converted)) [µM]","binding constant K of Z14Glr-RSA complex (rat serum albumin (RSA) [4]; fluorescence quenching, PBS pH 7.4)","effect on fluorescence emission intensity of RSA (rat serum albumin (RSA) [4]; mycotoxin 0–5 μM, albumin 2 μM, PBS pH 7.4)","Kd ([5]; 0.05 M sodium acetate pH 5.0, mycotoxin 5 μM, n = 3, read-out: HSA pH 5.0 logK ± SEM (binding constant) (converted)) [µM]","Kd ([5]; 0.05 M sodium borate pH 8.5, mycotoxin 5 μM, n = 3, read-out: HSA pH 8.5 logK ± SEM (binding constant) (converted)) [µM]","Kd ([5]; PBS pH 7.4, mycotoxin 5 μM, n = 3, read-out: HSA pH 7.4 logK ± SEM (binding constant) (converted))",Kd (rat serum albumin (RSA) [6]) [µM],"SBECD logK ± SEM (binding constant) ([7]; Benesi–Hildebrand, 0.05 M sodium acetate pH 5.0, mycotoxin 1 μM, n = 3) [L/mol]","SBECD-induced increase in the emission signal of the mycotoxin ([7]; SBECD 0–10 mM, mycotoxin 1 μM, sodium acetate pH 5.0)",SGD-induced increase in the emission signal of the mycotoxin [8],decrease in mycotoxin concentration (extraction) by BBP [9],"removal of mycotoxin by BBP at pH 10.0 compared with pH 5.0 ([9]; sodium borate pH 10.0 vs sodium acetate pH 5.0, mycotoxin 5 μM)",removal of mycotoxin by GBP [10],affinity of RSA compared to HSA (albumins)
"C[C@H]1CCCC(=O)CCC/C=C/c2cc(O[C@@H]3OC(C(=O)O)[C@@H](O)C(O)C3O)cc(O)c2C(=O)O1 (stereo partly drawn) [Z14Glr, zearalenone-14-β,D-glucuronide]",barely affected,barely affected,barely affected,4.65 ± 0.05,19.5,≈ 5 × 10^4 L/mol,considerably decreased,25.7,58.9,63.1 µM and 60.3 µM,13.5,2.32 ± 0.12,ninefold,fivefold,45%,significantly lower than at acidic pH,only moderate removal,
Cc1cc(O)cc2oc(=O)c3c(O)cc(O)cc3c12 [alternariol],,,,,,,,,,,,,,,,,,almost eightfold higher affinity
C[C@H]1CCCC(=O)CCC/C=C/c2cc(O)cc(O)c2C(=O)O1 [zearalenone],,,,,,,,,,,,,,,more than 95%,,,

# — article PMC10059066, “Probing Serum Albumins and Cyclodextrins as Binders of the Mycotoxin Metabolites Alternariol-3-Glucoside, Alternariol-9-Monomethylether-3-Glucoside, and Zearalenone-14-Glucuronide” (Metabolites, 2023)
